For 9 compounds, IC50 results are on record in US20120121591A1 (priority 2009, published 2012).

Like-named read-outs stand apart in the source and are kept apart here. Positions of bridges follow the written chain, without caps; N, C: chain ends. Residues, ends and D or L forms follow the SMILES beside them.

Holding throughout (assay type): cell-based
For one assay, the target named is hKv1.3 (Homo sapiens, UniProt P22001). Kind of assay: cell-based.
Assay [1] has as its system IL-2 secretion from T cells in human whole blood. The conditions noted are these: read-out: WB (IL-2) IC50 (nM, Avg).
In assay [2] the test system is IFN-g secretion from T cells in human whole blood.
The mark [3] stands for this setting: read-out: WB (IFNg) IC50 (nM, Avg).

Sequence of hKv1.3 (P22001 whole entry): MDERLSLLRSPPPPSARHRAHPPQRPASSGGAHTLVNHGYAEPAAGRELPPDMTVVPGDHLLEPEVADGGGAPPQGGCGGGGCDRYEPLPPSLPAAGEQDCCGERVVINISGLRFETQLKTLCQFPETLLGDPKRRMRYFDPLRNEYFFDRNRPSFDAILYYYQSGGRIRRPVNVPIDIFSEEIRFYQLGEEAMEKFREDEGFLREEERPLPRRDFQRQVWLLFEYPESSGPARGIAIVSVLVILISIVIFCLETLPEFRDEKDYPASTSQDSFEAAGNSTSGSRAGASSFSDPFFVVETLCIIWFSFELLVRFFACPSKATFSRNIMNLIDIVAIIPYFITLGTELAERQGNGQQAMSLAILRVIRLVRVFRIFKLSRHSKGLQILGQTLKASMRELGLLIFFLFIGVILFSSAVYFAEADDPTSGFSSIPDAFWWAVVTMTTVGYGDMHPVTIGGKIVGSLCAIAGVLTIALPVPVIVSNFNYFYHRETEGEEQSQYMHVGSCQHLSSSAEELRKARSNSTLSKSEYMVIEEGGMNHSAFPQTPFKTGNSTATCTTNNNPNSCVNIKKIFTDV

Regarding `CCCC[C@@H]1NC(=O)[C@H](CO)NC(=O)[C@H](Cc2c[nH]cn2)NC(=O)[C@H](CCC(=O)O)NC(=O)[C@@H]2CSSC[C@@H]3NC(=O)[C@H]([C@@H](C)O)NC(=O)[C@H](CCCNC(=N)N)NC(=O)[C@H](CCCNC(=N)N)NC(=O)[C@H](CSSC[C@H](NC(=O)[C@H](CCCNC(=N)N)NC(=O)[C@H](CO)NC(=O)[C@H](CCCCN)NC(=O)[C@@H]4CCCN4C(=O)[C@H]([C@@H](C)CC)NC(=O)[C@H]([C@@H](C)O)NC(=O)[C@H](CC(=O)O)NC(=O)[C@H]([C@@H](C)CC)NC(=O)[C@@H](NC(=O)[C@H](CO)NC(=O)[C@@H](N)CCCNC(=N)N)CSSC[C@@H](C(N)=O)NC(=O)[C@H]([C@@H](C)O)NC(=O)CNC3=O)C(=O)N[C@@H]([C@@H](C)O)C(=O)N[C@@H](C)C(=O)N[C@@H](C)C(=O)N[C@@H](CCCCN)C(=O)N2)NC(=O)[C@H](Cc2ccccc2)NC(=O)[C@H](CO)NC(=O)[C@H](CC(C)C)NC(=O)[C@H](CCCNC(=N)N)NC(=O)[C@H](Cc2ccc(O)cc2)NC(=O)[C@H](CCCCN)NC1=O`, the IC50 is 0.398 nM at hKv1.3 (Kv1.3 (IWQ) IC50 (nM, Avg)); 1.32 nM in assay [1]; 2.03 nM in assay [2] (setting [3]).

For the compound `CCCC[C@@H]1NC(=O)[C@H](CO)NC(=O)[C@H](Cc2c[nH]cn2)NC(=O)[C@H](CCCCN)NC(=O)[C@@H]2CSSC[C@@H]3NC(=O)[C@H]([C@@H](C)O)NC(=O)[C@H](CCCNC(=N)N)NC(=O)[C@H](CCCCN)NC(=O)[C@H](CSSC[C@H](NC(=O)[C@H](CCCNC(=N)N)NC(=O)[C@H](CO)NC(=O)[C@H](CCCCN)NC(=O)[C@@H]4CCCN4C(=O)[C@H]([C@@H](C)CC)NC(=O)[C@H]([C@@H](C)O)NC(=O)[C@H](CC(=O)O)NC(=O)[C@H](CCC(=O)O)NC(=O)[C@@H](NC(=O)[C@H](CO)NC(=O)[C@@H](N)CCCNC(=N)N)CSSC[C@@H](C(N)=O)NC(=O)[C@H]([C@@H](C)O)NC(=O)CNC3=O)C(=O)N[C@@H]([C@@H](C)O)C(=O)N[C@@H](C)C(=O)N[C@@H](Cc3ccccc3)C(=O)N[C@@H](CCCCN)C(=O)N2)NC(=O)[C@H](Cc2ccccc2)NC(=O)[C@H](Cc2cccc3ccccc23)NC(=O)[C@H](CC(C)C)NC(=O)[C@H](CCCNC(=N)N)NC(=O)[C@H](Cc2ccc(O)cc2)NC(=O)[C@H](CCCCN)NC1=O`, the IC50 against hKv1.3 (Kv1.3 (IWQ) IC50 (nM, Avg)) stood at 1.66 nM; in assay [1] it was 10.7 nM; in assay [2] (setting [3]) it was 17.4 nM.

As to `CCCC[C@@H]1NC(=O)[C@H](CO)NC(=O)[C@H](Cc2c[nH]cn2)NC(=O)[C@H](CCCNC(=N)N)NC(=O)[C@@H]2CSSC[C@@H]3NC(=O)[C@H]([C@@H](C)O)NC(=O)[C@H](CCCNC(=N)N)NC(=O)[C@H](CCCCN)NC(=O)[C@H](CSSC[C@H](NC(=O)[C@H](CCCNC(=N)N)NC(=O)[C@H](CO)NC(=O)[C@H](CCCCN)NC(=O)[C@@H]4CCCN4C(=O)[C@H]([C@@H](C)CC)NC(=O)[C@H]([C@@H](C)O)NC(=O)[C@H](CC(=O)O)NC(=O)[C@H](CCC(=O)O)NC(=O)[C@@H](NC(=O)[C@H](CO)NC(=O)[C@@H](N)CCCNC(=N)N)CSSC[C@@H](C(N)=O)NC(=O)[C@H]([C@@H](C)O)NC(=O)CNC3=O)C(=O)N[C@@H]([C@@H](C)O)C(=O)N[C@@H](C)C(=O)N[C@@H](Cc3ccccc3)C(=O)N[C@@H](CCCCN)C(=O)N2)NC(=O)[C@H](Cc2ccccc2)NC(=O)[C@H](CO)NC(=O)[C@H](CC(C)C)NC(=O)[C@H](CCCNC(=N)N)NC(=O)[C@H](Cc2ccc(O)cc2)NC(=O)[C@H](CCCCN)NC1=O`, the IC50 against hKv1.3 (Kv1.3 (IWQ) IC50 (nM, Avg)) was 0.269 nM; in assay [1] it was 1.96 nM; in assay [2] (setting [3]) it was 1.33 nM.

As to 30kDaPEG-ShK, the IC50 was 1.93 nM with hKv1.3 (read-out: Kv1.3 (IWQ) IC50 (nM, Avg)); 0.372 nM in assay [1]; 2.42 nM in assay [2] (setting [3]).

For `CC[C@H](C)[C@@H]1NC(=O)[C@H](CC(=O)O)NC(=O)[C@H]([C@@H](C)O)NC(=O)[C@@H]2CSSC[C@@H]3NC(=O)[C@H](CC(C)C)NC(=O)[C@H](CC(N)=O)NC(=O)[C@H](CC(C)C)NC(=O)[C@H](CCCNC(=N)N)NC(=O)[C@H](Cc4ccc(O)cc4)NC(=O)[C@H](CCCCN)NC(=O)[C@H](CCSC)NC(=O)[C@H](CO)NC(=O)[C@H]([C@@H](C)O)NC(=O)[C@H](CCCNC(=N)N)NC(=O)[C@H](CSSC[C@H](NC(=O)[C@H]([C@@H](C)O)NC(=O)[C@H](CCCCN)NC(=O)[C@H](CCCNC(=N)N)NC3=O)C(=O)NCC(=O)N[C@@H](CO)C(=O)N[C@H](C(=O)O)CSSC[C@H](NC(=O)[C@@H](NC(=O)[C@@H](N)CCCNC(=N)N)[C@@H](C)O)C(=O)N[C@@H](CCCCN)C(=O)N[C@@H](CC(=O)O)C(=O)N[C@@H](CC(C)C)C(=O)N[C@@H]([C@@H](C)CC)C(=O)N3CCC[C@H]3C(=O)N[C@@H](C(C)C)C(=O)N[C@@H](CO)C(=O)N[C@@H](CCC(=O)O)C(=O)N2)NC(=O)[C@H](CCCNC(=N)N)NC1=O` [HmK, reference compound] (H-RTCKDLIPVSECTDIRCRTSMKYRLNLCRKTCGSC-OH; disulfide 3-35, 12-28, 17-32), the IC50 against hKv1.3 (Kv1.3 (IWQ) IC50 (nM, Avg)) amounted to 0.9 nM; in assay [1], 0.85 nM; in assay [2] (setting [3]), 1.2 nM.

In the case of `CC[C@H](C)[C@@H]1NC(=O)[C@@H](NC(=O)[C@H](CO)NC(=O)[C@@H](N)CCCNC(=N)N)CSSC[C@@H](C(=O)O)NC(=O)[C@H]([C@@H](C)O)NC(=O)CNC(=O)[C@@H]2CSSC[C@@H]3NC(=O)[C@H](CCC(N)=O)NC(=O)[C@H](Cc4ccccc4)NC(=O)[C@H](C)NC(=O)[C@H]([C@@H](C)O)NC(=O)[C@H](CSSC[C@H](NC(=O)[C@H](Cc4ccccc4)NC(=O)[C@H](CO)NC(=O)[C@H](CC(C)C)NC(=O)[C@H](CCCNC(=N)N)NC(=O)[C@H](C)NC(=O)[C@H](CCCCN)NC(=O)[C@H](CCSC)NC(=O)[C@H](CO)NC(=O)[C@H](Cc4c[nH]cn4)NC(=O)[C@H](CCCCN)NC3=O)C(=O)N[C@@H](CCCNC(=N)N)C(=O)N[C@@H](CCCCN)C(=O)N[C@@H]([C@@H](C)O)C(=O)N2)NC(=O)[C@H](CCCNC(=N)N)NC(=O)[C@H](CO)NC(=O)[C@H](CCCCN)NC(=O)[C@@H]2CCCN2C(=O)[C@H]([C@@H](C)CC)NC(=O)[C@H]([C@@H](C)O)NC(=O)[C@H](CC(=O)O)NC1=O` [Tyr23(A)], the IC50 on hKv1.3 (Kv1.3 (IWQ) IC50 (nM, Avg)) turned out to be 0.621 nM; in assay [1] it was 3.75 nM; in assay [2] (setting [3]) it was 5.44 nM.

As to `CC[C@H](C)[C@@H]1NC(=O)[C@@H](NC(=O)[C@H](CO)NC(=O)[C@@H](N)CCCNC(=N)N)CSSC[C@@H](C(=O)O)NC(=O)[C@H](CCC(=O)O)NC(=O)CNC(=O)[C@@H]2CSSC[C@@H]3NC(=O)[C@H](CCC(N)=O)NC(=O)[C@H](Cc4ccccc4)NC(=O)[C@H](C)NC(=O)[C@H]([C@@H](C)O)NC(=O)[C@H](CSSC[C@H](NC(=O)[C@H](Cc4ccccc4)NC(=O)[C@H](CO)NC(=O)[C@H](CC(C)C)NC(=O)[C@H](CCCNC(=N)N)NC(=O)[C@H](Cc4ccc(O)cc4)NC(=O)[C@H](CCCCN)NC(=O)[C@H](CCSC)NC(=O)[C@H](CO)NC(=O)[C@H](Cc4c[nH]cn4)NC(=O)[C@H](CCCCN)NC3=O)C(=O)N[C@@H](CCCNC(=N)N)C(=O)N[C@@H](CCCCN)C(=O)N[C@@H]([C@@H](C)O)C(=O)N2)NC(=O)[C@H](CCCNC(=N)N)NC(=O)[C@H](CO)NC(=O)[C@H](CCCCN)NC(=O)[C@@H]2CCCN2C(=O)[C@H]([C@@H](C)CC)NC(=O)[C@H]([C@@H](C)O)NC(=O)[C@H](CC(=O)O)NC1=O` [[Glu34]ShK], the IC50 was determined as 0.067 nM against hKv1.3 (Kv1.3 (IWQ) IC50 (nM, Avg)) and 0.123 nM in assay [2] (read-out: WB (IFNg) IC5- (nM, Avg)).

In the case of `CC[C@H](C)[C@@H]1NC(=O)[C@@H](NC(=O)[C@H](CO)NC(=O)[C@@H](N)CCCNC(=N)N)CSSC[C@@H](C(=O)O)NC(=O)[C@H]([C@@H](C)O)NC(=O)CNC(=O)[C@@H]2CSSC[C@@H]3NC(=O)[C@H](CCC(N)=O)NC(=O)[C@H](Cc4ccccc4)NC(=O)[C@H](C)NC(=O)[C@H]([C@@H](C)O)NC(=O)[C@H](CSSC[C@H](NC(=O)[C@H](Cc4ccccc4)NC(=O)[C@H](CO)NC(=O)[C@H](CC(C)C)NC(=O)[C@H](CCCNC(=N)N)NC(=O)[C@H](Cc4ccc(O)cc4)NC(=O)[C@H](CCCCN)NC(=O)[C@H](CCSC)NC(=O)[C@H](CO)NC(=O)[C@H](Cc4c[nH]cn4)NC(=O)[C@H](CCCCN)NC3=O)C(=O)N[C@@H](CCCNC(=N)N)C(=O)N[C@@H](CCCCN)C(=O)N[C@@H]([C@@H](C)O)C(=O)N2)NC(=O)[C@H](CCCNC(=N)N)NC(=O)[C@H](CO)NC(=O)[C@H](CCCCN)NC(=O)[C@@H]2CCCN2C(=O)[C@H]([C@@H](C)CC)NC(=O)[C@H](CCCCN)NC(=O)[C@H](CC(=O)O)NC1=O` [[Lys6]ShK], the IC50 on hKv1.3 (Kv1.3 (IWQ) IC50 (nM, Avg)) turned out to be 0.085 nM; in assay [2] (setting [3]), 0.21 nM.

Regarding `CC[C@H](C)[C@@H]1NC(=O)[C@@H](NC(=O)[C@H](CO)NC(=O)[C@@H](N)CCCNC(=N)N)CSSC[C@@H](C(N)=O)NC(=O)[C@H]([C@@H](C)O)NC(=O)CNC(=O)[C@@H]2CSSC[C@@H]3NC(=O)[C@H](CCCCN)NC(=O)[C@H](Cc4ccccc4)NC(=O)[C@H](C)NC(=O)[C@H]([C@@H](C)O)NC(=O)[C@H](CSSC[C@H](NC(=O)[C@H](Cc4ccccc4)NC(=O)[C@H](CO)NC(=O)[C@H](CC(C)C)NC(=O)[C@H](CCCNC(=N)N)NC(=O)[C@H](Cc4ccc(O)cc4)NC(=O)[C@H](CCCCN)NC(=O)[C@H](CC(N)=O)NC(=O)[C@H](CO)NC(=O)[C@H](Cc4c[nH]cn4)NC(=O)[C@H](CCCCN)NC3=O)C(=O)N[C@@H](CCCNC(=N)N)C(=O)N[C@@H](CCCCN)C(=O)N[C@@H]([C@@H](C)O)C(=O)N2)NC(=O)[C@H](CCCNC(=N)N)NC(=O)[C@H](CO)NC(=O)[C@H](CCCCN)NC(=O)[C@@H]2CCCN2C(=O)[C@H]([C@@H](C)CC)NC(=O)[C@H]([C@@H](C)O)NC(=O)[C@H](CC(=O)O)NC1=O` [[Lys16, Asn21]ShK-amide], the IC50 on hKv1.3 (Kv1.3 (IWQ) IC50 (nM, Avg)) was 0.167 nM; in assay [1], 3.24 nM.
